# Tests used:
# MEL-28 = experiment: In vitro cytotoxic activity, SRB assay; type: cell-based, human; conditions: MEL-28, 48 hours exposure
# Description: (§1) Plates are washed with deionized water and dried.
# K-562 = experiment: In vitro cytotoxic activity, SRB assay; type: cell-based, human; conditions: K-562, 48 hours exposure
# Description: as §1
# A-549 = experiment: In vitro cytotoxic activity, SRB assay; type: cell-based, human; conditions: A-549, 48 hours exposure; for CC50: read-out: LC50 (the source's name)
# Description: as §1
# LN-caP = experiment: In vitro cytotoxic activity, SRB assay; type: cell-based, human; conditions: 48 hours exposure
# Description: as §1
# SK-BR-3 = experiment: In vitro cytotoxic activity, SRB assay; type: cell-based, human; conditions: SK-BR-3, 48 hours exposure; for CC50: read-out: LC50 (the source's name)
# Description: as §1
# PANC-1 = experiment: In vitro cytotoxic activity, SRB assay; type: cell-based, human; conditions: PANC-1, 48 hours exposure
# Description: as §1
# HT-29 = experiment: In vitro cytotoxic activity, SRB assay; type: cell-based, human; conditions: HT-29, 48 hours exposure; for CC50: read-out: LC50 (the source's name)
# Description: as §1
# HELA-APL = experiment: In vitro cytotoxic activity, SRB assay; type: cell-based, human; conditions: 48 hours exposure; for CC50: read-out: LC50 (the source's name)
# Description: as §1
# IGROV = experiment: In vitro cytotoxic activity, SRB assay; type: cell-based, human; conditions: 48 hours exposure
# Description: as §1
# LOVO-DOX = experiment: In vitro cytotoxic activity, SRB assay; type: cell-based, human; conditions: 48 hours exposure
# Description: as §1
# IGROV-ET = experiment: In vitro cytotoxic activity, SRB assay; type: cell-based, human; conditions: 48 hours exposure
# Description: as §1
# DU-145 = experiment: In vitro cytotoxic activity, SRB assay; type: cell-based, human; conditions: DU-145, 48 hours exposure
# Description: as §1
# LOVO = experiment: In vitro cytotoxic activity, SRB assay; type: cell-based, human; conditions: 48 hours exposure
# Description: as §1
# [1] = tested on: AML-12, normal mouse liver cells; experiment: In vitro toxicity to normal cells, MTS assay; conditions: read-out: ALM Liver IC50, 24 h
# Procedure: (§3) In order to assess the cytotoxicity of the drugs to normal cells, we used 96 well plates plated at a density of 5000 cells per well with normal cell lines maintained as per the directions of the ATCC: AML-12, normal mouse liver cells and NRK-52E, normal rat kidney cell. The cells in each plate were permitted to settle overnight before adding the test drug. To each well (100 μl medium) 10 μl of drug in media was added at varying concentrations (1×10^−10-0.01 mg/ml final concentration) and further incubated overnight at 37° C. with 5% CO2. All experiments were repeated at least 3 times and were assayed in duplicate. After 24 h the MTS assay (CellTiter 96 aqueous) was performed according to the manufacturer's (Promega) directions (for all cell types). Cell viability (mitochondrial activity) is determined via enzymatic conversion of the formazan substrate.
# [2] = tested on: NRK-52E, normal rat kidney cell; experiment: In vitro toxicity to normal cells, MTS assay; type: cell-based; conditions: 24 h
# Procedure: as §3
# HELA = experiment: In vitro cytotoxic activity, SRB assay; conditions: for CC50: read-out: LC50, 48 hours exposure
# Procedure: The finality of these assays is to interrupt the growth of a “in vitro” tumor cell culture by means a continued exhibition of the cells to the sample to be testing.
# Most of the cell lines are obtained from American Type Culture Collection (ATCC) derived from different human cancer types.
# Cells are maintained in RPMI 1640 10% FBS, supplemented with 0.1 g/l penicillin and 0.1 g/l streptomycin sulfate and then incubated at 37° C., 5% CO2 and 98% humidity. For the experiments, cells were harvested from subconfluent cultures using trypsin and resuspended in fresh medium before plating.
# Cells are seeded in 96 well microtiter plates, at 5×10^3 cells per well in aliquots of 195 μl medium, and they are allowed to attach to the plate surface by growing in drug free medium for 18 hours. Afterward, samples are added in aliquots of 5 μl in a ranging from 10 to 10^−8 μg/ml, dissolved in DMSO/EtOH/PBS (0.5:0.5:99). After 48 hours exposure, the antitumor effect are measured by the SRB methodology: cells are fixed by adding 50 μl of cold 50% (wt/vol) trichloroacetic acid (TCA) and incubating for 60 minutes at 4° C. Plates are washed with deionized water and dried. One hundred μl of SRB solution (0.4% wt/vol in 1% acetic acid) is added to each microtiter well and incubated for 10 minutes at room temperature. Unbound SRB is removed by washing with 1% acetic acid. Plates are air dried and bound stain is solubilized with Tris buffer. Optical densities are read on a automated spectrophotometric plate reader at a single wavelength of 490 nm.
# The values for mean +/− SD of data from triplicate wells are calculated. Some parameters for cellular responses can be calculated: GI=growth inhibition, TGI=total growth inhibition (cytostatic effect) and LC=cell killing (cytotoxic effect).
# In vivo MTD in CD-1 mice = conditions: mouse, unit inferred; for MTD at 5 days: 5 daily doses; for MTD: intravenous, single bolus
# Procedure: (§2) The Maximum Tolerated Dose is determined in CD-1 and athymic mice (both genders) for each drug after single bolus administration and after 5 dayly doses. The results are given in table IV, there is no significant difference between the compounds 5 methylhexanoic KF and (4S)-methylhexanoic KF.
# female mice = conditions: cited from earlier work
# [3] = In vivo MTD in athymic mice; conditions: mouse; for MTD at 5 days: 5 daily doses; for MTD: intravenous, single bolus
# Procedure: as §2
# [4] = female CD-1 mice, read-out: Female CD-1 mice MTD 5DD
# [5] = female CD-1 mice, read-out: Female CD-1 mice MTD Bolus
# [6] = male CD-1 mice, read-out: Male CD-1 mice MTD Bolus
# [7] = male CD-1 mice, read-out: Male CD-1 mice MTD 5DD
# [8] = female athymic mice, no unit printed in table (325 μg/kg/day), read-out: Female athymic mice MTD 5DD
# [9] = female athymic mice, unit inferred, read-out: Female athymic mice MTD Bolus
# [10] = male athymic mice, unit inferred, read-out: Male athymic mice MTD Bolus
# [11] = male athymic mice, unit inferred, read-out: Male athymic mice MTD 5DD
compound,measurement,setting,value
"C/C=C1\NC(=O)[C@H](Cc2ccccc2)NC(=O)[C@@H](C(C)C)NC(=O)[C@@H]([C@@H](C)CC)NC(=O)[C@H](NC(=O)[C@H](NC(=O)[C@H](CCCN)NC(=O)[C@H]2CCCN2C(=O)[C@H](NC(=O)[C@@H](NC(=O)[C@@H](NC(=O)[C@H](NC(=O)CCCC(C)C)C(C)C)[C@@H](C)O)C(C)C)C(C)C)[C@@H](C)CC)[C@@H](C)OC(=O)[C@H](C(C)C)NC1=O [5-methylhexanoic KF, reference compound]",GI50,MEL-28,0.69 µM
same,LC50,MEL-28,3.55 µM
same,GI50,K-562,1.54 µM
same,LC50 (50% lethal concentration),K-562,5.66 µM
same,GI50,A-549,0.866 µM
same,CC50,A-549,3.78 µM
same,GI50,LN-caP,0.961 µM
same,LC50 (50% lethal concentration),LN-caP,5.57 µM
same,GI50,SK-BR-3,0.398 µM
same,CC50,SK-BR-3,6.77 µM
same,GI50,PANC-1,1.38 µM
same,LC50,PANC-1,6.07 µM
same,GI50,HT-29,0.141 µM
same,CC50,HT-29,0.562 µM
same,GI50,HELA-APL,1.06 µM
same,CC50,HELA-APL,4.43 µM
same,GI50,IGROV,0.42 µM
same,LC50,IGROV,3.8 µM
same,GI50,LOVO-DOX,0.162 µM
same,LC50,LOVO-DOX,0.62 µM
same,GI50,IGROV-ET,0.447 µM
same,LC50,IGROV-ET,3.09 µM
same,GI50,DU-145,0.751 µM
same,LC50,DU-145,3.6 µM
same,GI50,LOVO,0.12 µM
same,LC50 (50% lethal concentration),LOVO,0.428 µM
same,IC50,[1],3.4 µM
same,IC50,[2],2.7 µM
same,GI50,HELA; 48 hours exposure,0.839 µM
same,CC50,HELA,4.26 µM
same,MTD at 5 days,In vivo MTD in CD-1 mice; [4],0.175 to 0.35 mg/kg
same,MTD,In vivo MTD in CD-1 mice; [5],0.2 mg/kg
same,MTD,In vivo MTD in CD-1 mice; [6],0.3 mg/kg
same,MTD at 5 days,In vivo MTD in CD-1 mice; [7],0.175 to 0.35 mg/kg
same,tolerability of repeated administration,"female mice; 280 μg/kg, once daily times five schedule",without any apparent evidence of acute toxicity
same,maximum tolerated dose (MTD),"female mice; female mice, single bolus iv injection",0.28 mg/kg
same,MTD at 5 days,[3]; [8],0.325 mg/kg
same,MTD,[3]; [9],0.325 mg/kg
same,MTD,[3]; [10],0.35 mg/kg
same,MTD at 5 days,[3]; [11],0.35 mg/kg
C/C=C1\NC(=O)[C@H](Cc2ccccc2)NC(=O)[C@@H](C(C)C)NC(=O)[C@@H]([C@@H](C)CC)NC(=O)[C@H](NC(=O)[C@H](NC(=O)[C@H](CCCN)NC(=O)[C@H]2CCCN2C(=O)[C@H](NC(=O)[C@@H](NC(=O)[C@@H](NC(=O)[C@H](NC(=O)CC[C@H](C)CC)C(C)C)[C@@H](C)O)C(C)C)C(C)C)[C@@H](C)CC)[C@@H](C)OC(=O)[C@H](C(C)C)NC1=O [(4R)-methylhexanoic KF],GI50,MEL-28,1.14 µM
same,LC50,MEL-28,3.8 µM
same,TGI,MEL-28,2.09E−06 Molar
same,GI50,K-562,3.73 µM
same,LC50 (50% lethal concentration),K-562,6.77 µM
same,TGI,K-562,6.77E−06 Molar
same,GI50,A-549,1.2 µM
same,TGI,A-549,2.26E−06 Molar
same,CC50,A-549,4.24 µM
same,GI50,LN-caP,1.5 µM
same,LC50 (50% lethal concentration),LN-caP,4.04 µM
same,TGI,LN-caP,2.46E−06 Molar
same,GI50,SK-BR-3,1.25 µM
same,TGI,SK-BR-3,2.20E−06 Molar
same,CC50,SK-BR-3,3.86 µM
same,GI50,PANC-1,4.7 µM
same,LC50,PANC-1,4.24 µM
same,TGI,PANC-1,4.24E−06 Molar
same,GI50,HT-29,0.738 µM
same,TGI,HT-29,1.54E−06 Molar
same,CC50,HT-29,3.22 µM
same,GI50,HELA-APL,1.56 µM
same,TGI,HELA-APL,3.47E−06 Molar
same,CC50,HELA-APL,6.77 µM
same,GI50,IGROV,0.941 µM
same,LC50,IGROV,3.5 µM
same,TGI,IGROV,1.81E−06 Molar
same,GI50,LOVO-DOX,0.288 µM
same,LC50,LOVO-DOX,2.19 µM
same,TGI,LOVO-DOX,7.71E−07 Molar
same,GI50,IGROV-ET,0.805 µM
same,LC50,IGROV-ET,3.26 µM
same,TGI,IGROV-ET,1.62E−06 Molar
same,GI50,DU-145,1.2 µM
same,LC50,DU-145,3.82 µM
same,TGI,DU-145,2.14E−06 Molar
same,GI50,LOVO,0.248 µM
same,LC50 (50% lethal concentration),LOVO,2.28 µM
same,TGI,LOVO,7.78E−07 Molar
same,GI50,HELA; 48 hours exposure,1.05 µM
same,TGI,HELA; 48 hours exposure,1.93E−06 Molar
same,CC50,HELA,3.55 µM
"C/C=C1\NC(=O)[C@H](Cc2ccccc2)NC(=O)[C@@H](C(C)C)NC(=O)[C@@H]([C@@H](C)CC)NC(=O)[C@H](NC(=O)[C@H](NC(=O)[C@H](CCCN)NC(=O)[C@H]2CCCN2C(=O)[C@H](NC(=O)[C@@H](NC(=O)[C@@H](NC(=O)[C@H](NC(=O)CC[C@@H](C)CC)C(C)C)[C@@H](C)O)C(C)C)C(C)C)[C@@H](C)CC)[C@@H](C)OC(=O)[C@H](C(C)C)NC1=O [(4S)-methylhexanoic KF, 4(S)-MeHex-D-Val-L-Thr-L-VaI-D-Val-D-Pro-L-Orn-D-allo-Ile-cyclo(D-allo-Thr-D-allo-Ile-D-Val-L-Phe-Z-Dhb-L-Val)]",GI50,MEL-28,1.43 µM
same,LC50,MEL-28,4.72 µM
same,GI50,K-562,2.52 µM
same,LC50 (50% lethal concentration),K-562,6.77 µM
same,GI50,A-549,0.267 µM
same,CC50,A-549,3.09 µM
same,GI50,LN-caP,1.12 µM
same,LC50 (50% lethal concentration),LN-caP,5.93 µM
same,GI50,SK-BR-3,0.181 µM
same,CC50,SK-BR-3,0.606 µM
same,GI50,PANC-1,6.77 µM
same,LC50,PANC-1,6.77 µM
same,GI50,HT-29,0.301 µM
same,CC50,HT-29,2.71 µM
same,GI50,HELA-APL,1.04 µM
same,CC50,HELA-APL,4.39 µM
same,GI50,IGROV,0.292 µM
same,LC50,IGROV,2.62 µM
same,GI50,LOVO-DOX,0.157 µM
same,LC50,LOVO-DOX,0.677 µM
same,GI50,IGROV-ET,0.225 µM
same,LC50,IGROV-ET,2.82 µM
same,GI50,DU-145,0.237 µM
same,LC50,DU-145,2.49 µM
same,GI50,LOVO,0.163 µM
same,LC50 (50% lethal concentration),LOVO,0.58 µM
same,IC50,[1],5.4 µM
same,IC50,[2],2.7 µM
same,GI50,HELA; 48 hours exposure,1.18 µM
same,CC50,HELA,4.97 µM
same,MTD at 5 days,In vivo MTD in CD-1 mice; [4],0.175 to 0.35 mg/kg
same,MTD,In vivo MTD in CD-1 mice; [5],0.2 mg/kg
same,MTD,In vivo MTD in CD-1 mice; [6],0.3 mg/kg
same,MTD at 5 days,In vivo MTD in CD-1 mice; [7],0.175 to 0.35 mg/kg
same,MTD at 5 days,[3]; [8],0.325 mg/kg
same,MTD,[3]; [9],0.325 mg/kg
same,MTD,[3]; [10],0.35 mg/kg
same,MTD at 5 days,[3]; [11],0.35 mg/kg

# Reference: patent US7507708B2, “Antitumoral compounds” (Pharma Mar, S.A.U., priority 2003, dated 2009)
